Results reported in patent publication US8188078B2 (Sanofi-Aventis, priority 2007, dated 2012).

Legend:
MET = target: T1, MET (Homo sapiens, UniProt P08581); assay: Test C: inhibition of the autophosphorylation of MET, ELISA technique (pppY1230, 1234, 1235), MKN45 cells; type: cell-based
T1 construct: endogenous in cells; host or cells: MKN45 cells
In short: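 MKN45 cells adhered 24 h, then treated 1 h with compound at 6 concentrations in duplicate, final range 10000 to 30 nM. Lysates assayed by phospho-MET (pY1230/1234/1235) sandwich ELISA with HRP chromogen read at 450 nm.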

MKN45 cells = assay: Test D: cellular proliferation by 14C-thymidine pulse, MKN45 cells; type: cell-based; conditions: Homo sapiens, MKN-45, cellular proliferation by 14C-thymidine pulse; cell line not stated (HCT116 or MKN45)
In short: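 MKN45 cells (7500/well, RPMI + 10% foetal calf serum) treated with 10 concentrations, 10000 to 0.3 nM in 3-fold steps, duplicate. 14C-thymidine (0.1 μCi/well) added at 72 h; incorporation counted after 24 h pulse, 96 h total treatment.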

T1 sequence (P08581 25-1390): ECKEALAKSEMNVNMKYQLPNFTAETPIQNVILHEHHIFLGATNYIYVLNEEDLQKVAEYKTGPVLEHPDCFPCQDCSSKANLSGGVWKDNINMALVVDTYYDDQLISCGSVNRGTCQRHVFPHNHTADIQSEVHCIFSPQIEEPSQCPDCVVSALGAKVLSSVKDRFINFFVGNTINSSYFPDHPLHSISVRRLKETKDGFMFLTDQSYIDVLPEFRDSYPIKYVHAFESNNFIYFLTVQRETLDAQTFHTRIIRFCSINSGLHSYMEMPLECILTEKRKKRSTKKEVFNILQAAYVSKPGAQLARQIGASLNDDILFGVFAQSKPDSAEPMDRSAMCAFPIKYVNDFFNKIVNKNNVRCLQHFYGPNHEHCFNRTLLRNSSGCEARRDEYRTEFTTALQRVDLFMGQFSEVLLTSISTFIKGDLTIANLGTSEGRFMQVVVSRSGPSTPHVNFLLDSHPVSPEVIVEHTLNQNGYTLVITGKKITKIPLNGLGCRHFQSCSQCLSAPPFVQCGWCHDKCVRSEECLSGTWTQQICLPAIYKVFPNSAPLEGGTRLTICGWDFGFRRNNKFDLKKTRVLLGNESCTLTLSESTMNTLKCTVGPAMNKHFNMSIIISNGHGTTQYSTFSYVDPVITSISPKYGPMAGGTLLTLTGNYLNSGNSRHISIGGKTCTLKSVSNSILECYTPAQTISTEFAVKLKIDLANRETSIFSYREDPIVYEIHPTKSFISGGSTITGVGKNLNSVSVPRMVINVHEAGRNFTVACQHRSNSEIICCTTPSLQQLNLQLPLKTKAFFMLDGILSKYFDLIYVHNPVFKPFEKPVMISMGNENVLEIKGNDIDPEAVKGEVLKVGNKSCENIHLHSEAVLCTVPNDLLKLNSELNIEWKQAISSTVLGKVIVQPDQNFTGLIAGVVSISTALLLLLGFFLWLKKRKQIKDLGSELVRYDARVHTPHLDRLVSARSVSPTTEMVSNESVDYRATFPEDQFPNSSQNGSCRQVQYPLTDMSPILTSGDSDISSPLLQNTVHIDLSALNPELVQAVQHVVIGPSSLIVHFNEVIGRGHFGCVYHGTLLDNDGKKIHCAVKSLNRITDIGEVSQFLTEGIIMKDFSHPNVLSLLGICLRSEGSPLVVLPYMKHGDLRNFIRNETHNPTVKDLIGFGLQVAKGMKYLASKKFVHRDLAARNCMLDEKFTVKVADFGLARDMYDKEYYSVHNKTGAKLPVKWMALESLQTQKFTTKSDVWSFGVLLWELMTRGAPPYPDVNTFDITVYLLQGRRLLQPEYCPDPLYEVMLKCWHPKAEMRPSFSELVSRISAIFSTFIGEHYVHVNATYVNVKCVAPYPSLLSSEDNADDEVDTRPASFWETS

CC(Oc1ccc2nc(NC(=O)NCCN3CCN(Cc4ccccc4)CC3)sc2c1)c1c(Cl)ccc(F)c1Cl (stereo not drawn) [Example 35, 1-[2-(4-benzylpiperazin-1-yl)ethyl]-3-{6-[1-(2,6-dichloro-3-fluorophenyl)ethoxy]-1,3-benzothiazol-2-yl}urea]
IC50 (MET): 500 to 10000 nM
IC50 (MKN45 cells): > 10000 nM
melting point: 125 to 139 °C

CC(Oc1ccc2nc(NC(=O)NCCN3CCNCC3)sc2c1)c1c(Cl)ccc(F)c1Cl.O=C(O)C(F)(F)F (stereo not drawn) [Example 37, 1-{6-[1-(2,6-Dichloro-3-fluorophenyl)ethoxy]-1,3-benzothiazol-2-yl}-3-(2-piperazin-1-ylethyl)urea trifluoroacetate]
IC50 (MET): < 500 nM
IC50 (MKN45 cells): 500 to 10000 nM
melting point: 138 to 169 °C

CC(Oc1ccc2nc(NC(=O)NCCN3CCN(C(=O)OC(C)(C)C)CC3)sc2c1)c1c(Cl)ccc(F)c1Cl (stereo not drawn) [Example 36, 1,1-dimethylethyl 4-{2-[({6-[1-(2,6-dichloro-3-fluorophenyl)ethoxy]-1,3-benzothiazol-2-yl}carbamoyl)amino]ethyl}piperazine-1-carboxylate]
IC50 (MET): 500 to 10000 nM
IC50 (MKN45 cells): > 10000 nM
melting point: 87 °C

CC(Oc1cc2sc(NC(=O)NCC(=O)N3CCN(C)CC3)nc2cc1F)c1c(Cl)ccc(F)c1Cl (stereo not drawn) [Example 129, 1-{6-[1-(2,6-dichloro-3-fluorophenyl)ethoxy]-5-fluoro-1,3-benzothiazol-2-yl}-3-[2-(4-methylpiperazin-1-yl)-2-oxoethyl]urea]
IC50 (MET): < 500 nM
IC50 (MKN45 cells): 500 to 10000 nM
melting point: 235 to 238 °C

CC(Oc1ccc2nc(NC(=O)NCCN3CCOCC3)sc2c1)c1c(F)ccc(Cl)c1Cl (stereo not drawn) [Example 61, 1-{6-[1-(2,3-dichloro-6-fluorophenyl)ethoxy]-1,3-benzothiazol-2-yl}-3-(2-morpholin-4-ylethyl)urea]
IC50 (MET): < 500 nM
IC50 (MKN45 cells): < 500 nM
melting point: 200 °C

CC(Oc1ccc2nc(NC(=O)NCCN3CCOCC3)sc2c1)c1c(F)ccc(F)c1F (stereo not drawn) [Example 60, 1-(2-morpholin-4-ylethyl)-3-{6-[1-(2,3,6-trifluorophenyl)ethoxy]-1,3-benzothiazol-2-yl}urea]
IC50 (MET): 500 to 10000 nM
IC50 (MKN45 cells): > 10000 nM
melting point: 187 °C

CC(Oc1ccc2nc(NC(=O)NCCN3CCOCC3)[nH]c2c1)c1cc(F)ccc1Cl (stereo not drawn) [Example 3, 1-{6-[1-(2-chloro-5-fluorophenyl)ethoxy]-1H-benzimidazol-2-yl}-3-(2-morpholin-4-ylethyl)urea]
IC50 (MET): 500 to 10000 nM
IC50 (MKN45 cells): 500 to 10000 nM
melting point: 210 °C

Cc1ccc(F)c(C(C)Oc2ccc3nc(NC(=O)NCCN4CCOCC4)sc3c2)c1Cl (stereo not drawn) [Example 28, 1-{6-[1-(2-chloro-6-fluoro-3-methylphenyl)ethoxy]-1,3-benzothiazol-2-yl}-3-(2-morpholin-4-ylethyl)urea]
IC50 (MET): 500 to 10000 nM
IC50 (MKN45 cells): > 10000 nM
melting point: 165 to 170 °C

Cc1ccc(F)c(C(C)Oc2ccc3nc(NC(=O)NCCN4CCOCC4)sc3c2)c1F (stereo not drawn) [Example 123, 1-{6-[1-(2,6-difluoro-3-methylphenyl)ethoxy]-1,3-benzothiazol-2-yl}-3-[2-(morpholin-4-yl)ethyl]urea]
IC50 (MET): 500 to 10000 nM
IC50 (MKN45 cells): 500 to 10000 nM
melting point: 92 to 95 °C

CC(Oc1ccc2nc(NC(=O)NCCC3CCCN3C)sc2c1)c1c(F)ccc(Cl)c1Cl (stereo not drawn) [Example 110, 1-{6-[1-(2,3-dichloro-6-fluorophenyl)ethoxy]-1,3-benzothiazol-2-yl}-3-[2-(1-methylpyrrolidin-2-yl)ethyl]urea]
IC50 (MET): < 500 nM
IC50 (MKN45 cells): 500 to 10000 nM
melting point: 102 to 105 °C

CC(Oc1cc2sc(NC(=O)NCCN3CCOCC3)nc2cc1F)c1c(Cl)ccc(F)c1Cl (stereo not drawn) [Example 31, 1-{6-[1-(2,6-dichloro-3-fluorophenyl)ethoxy]-5-fluoro-1,3-benzothiazol-2-yl}-3-(2-morpholin-4-ylethyl)urea]
IC50 (MET): < 500 nM
IC50 (MKN45 cells): 500 to 10000 nM
melting point: 226 to 228 °C

O=C(NCCN1CCOCC1)Nc1nc2ccc(OCc3c(Cl)cccc3Cl)cc2s1 [Example 10, 1-{6-[(2,6-dichlorobenzyl)oxy]-1,3-benzothiazol-2-yl}-3-(2-morpholin-4-ylethyl)urea]
IC50 (MET): 500 to 10000 nM
IC50 (MKN45 cells): 500 to 10000 nM
melting point: 268 to 271 °C

CC(Oc1cc2sc(NC(=O)NCCCN)nc2cc1F)c1c(Cl)ccc(F)c1Cl (stereo not drawn) [Example 128, 1-(3-aminopropyl)-3-{6-[1-(2,6-dichloro-3-fluorophenyl)ethoxy]-5-fluoro-1,3-benzothiazol-2-yl}urea]
IC50 (MET): < 500 nM
IC50 (MKN45 cells): 500 to 10000 nM
melting point: 163 °C

COCCCNC(=O)Nc1nc2cc(F)c(OC(C)c3c(Cl)ccc(F)c3Cl)cc2s1 (stereo not drawn) [Example 104, 1-{6-[1-(2,6-dichloro-3-fluorophenyl)ethoxy]-5-fluoro-1,3-benzothiazol-2-yl}-3-(3-methoxypropyl)urea]
IC50 (MET): < 500 nM
IC50 (MKN45 cells): 500 to 10000 nM
melting point: 175 °C

CC(Oc1cc2sc(NC(=O)NCCOCC3CC3)nc2cc1F)c1c(Cl)ccc(F)c1Cl (stereo not drawn) [Example 103, 1-[2-(cyclopropylmethoxy)ethyl]-3-{6-[1-(2,6-dichloro-3-fluorophenyl)ethoxy]-5-fluoro-1,3-benzothiazol-2-yl}urea]
IC50 (MET): 500 to 10000 nM
IC50 (MKN45 cells): 500 to 10000 nM
melting point: 178 to 184 °C

CC(Oc1ccc2nc(NC(=O)NCCN3CCOCC3)[nH]c2c1)c1c(Cl)cccc1Cl (stereo not drawn) [Example 2, 1-{6-[1-(2,6-dichlorophenyl)ethoxy]-1H-benzimidazol-2-yl}-3-(2-morpholin-4-ylethyl)urea]
IC50 (MET): 500 to 10000 nM
IC50 (MKN45 cells): 500 to 10000 nM
melting point: 215 to 220 °C

CC(Oc1ccc2nc(NC(=O)NCCN3CCC(Cc4ccccc4)CC3)sc2c1)c1c(Cl)ccc(F)c1Cl (stereo not drawn) [Example 34, 1-[2-(4-benzylpiperidin-1-yl)ethyl]-3-{6-[1-(2,6-dichloro-3-fluorophenyl)ethoxy]-1,3-benzothiazol-2-yl}urea]
IC50 (MET): 500 to 10000 nM
IC50 (MKN45 cells): > 10000 nM
melting point: 133 to 139 °C

CC(Oc1cc2[nH]c(NC(=O)NCCN3CCOCC3)nc2cc1F)c1c(Cl)cccc1Cl (stereo not drawn) [Example 5, 1-{6-[1-(2,6-dichlorophenyl)ethoxy]-5-fluoro-1H-benzimidazol-2-yl}-3-(2-morpholin-4-ylethyl)urea]
IC50 (MET): 500 to 10000 nM
IC50 (MKN45 cells): 500 to 10000 nM
melting point: 210 to 216 °C
